Measurements taken from US20160015701A1, “Methods of Treating Acute Kidney Injury” (ABBIVE INC., priority 2013, published 2016).
Read-outs that look alike come from different tables or passages of the source.

What was measured:
[1] = system: proximal tubule (HK-2) cells
Experimental: After eighteen hours of incubation, lethal cell injury was assessed by % LDH release.

[2] = system: post ischemic kidneys; test: renal histology (H and E injury score, KI-67 staining) of two week post ischemic kidneys; type: in vivo, CD-1 mice; details: pre+post atrasentan
Experimental: Calculations and Statistics: All values are presented as means±1 SEM. Statistical comparisons were performed by unpaired Student's t test. The mRNA data were generated by competitive RT-PCR, with the results for any given message being expressed as a ratio to the simultaneously determined GAPDH product, used as a housekeeping gene. ChIP data, generated with real time PCR (qPCR) are presented as ng/mg total applied chromatin. The severity of histologic injury, as determined by studying H and E stained kidney sections, was assessed by blinded scoring of slides of 2 week post ischemic kidneys from 5 Atrasentan treated (24 hrs pre-ischemia, and 2 weeks post-ischemia) mice, and from 5 non Atrasentan treated post ischemic controls. […]
This example examined renal histology on kidneys from five control mice and five atrasentan-treated mice from Example 2. […] In addition, renal tubular cell proliferation was assessed by immunohistochemical staining for KI-67, a nuclear protein marker of all active cell cycle phases (G1, S, G2, mitosis; but not Go). (Scholzen T, et al., The Ki-67 protein: from the known and the unknown. J Cell Physiol. 182: 311-322, 2000.) The percent of KI-67 cells was determined on whole kidney sections, captured with ScanScope AT (Aperio, Vista, Calif.), and then analyzed with Nuclear Algorithm Spectrum software (version 11.1.1.764; Aperio).

[3] = system: unilateral ischemic renal injury; test: unilateral ischemia/reperfusion (I/R) injury protocol, renal weight two weeks post ischemia; type: in vivo, CD-1 mice
Experimental: (§1) All experiments were performed using male 30-45 gram CD-1 mice, obtained from Charles River Laboratories, Wilmington, Mass. They were housed under routine vivarium conditions with free food and water access. Surgeries were conducted under deep pentobarbital anesthesia (40-50 mg/Kg IP). Post surgical analgesia was provided with buprenorphine (0.1 mg/Kg IP) at the completion of surgery. All procedures were approved by the institution's IACUC, in accordance with NIH guidelines.
In this example, ET-1 and ETA/ETB receptor expression were quantified following ischemic renal injury, and ET-1 gene chromatin remodeling and RNA polymerase II (Pol II) binding were evaluated. Ten mice were subjected to a midline laparotomy, and the left renal pedicles were exposed and occluded ×30 min using atraumatic microvascular clamps. Uniform ischemia was confirmed by the development of total kidney cyanosis (indicating hypoxia). Body temperature was monitored with an intra-abdominal thermometer and maintained at 37° C. with an external heating source. At the completion of the ischemic period, the vascular clamp was removed, and uniform reperfusion was confirmed by loss of kidney cyanosis. The abdominal incision was then sutured in two layers using 3-0 chromic suture. The mice were then allowed to recover from anesthesia. Ten additional mice, subjected to the same surgical procedure, but not to renal pedicle occlusion, served as sham-operated controls.
This example studied whether atrasentan treatment, during pre- and post-ischemic period, confers renal protection. Eighteen mice were subjected to a unilateral ischemia/reperfusion (I/R) protocol as described in Example 1. […] Atrasentan was administered in the drinking water (25 μg/mL; designed to equate with a dose of ˜5 mg/Kg/day). Atrasentan dosing was started one day before surgery, and continued throughout the remainder of the experiment. Fresh atrasentan was provided ˜2-3× per week for two weeks. The remaining nine mice received only free food and water access, serving as controls.
The degree of post-ischemic loss of renal mass was assessed by comparing the weights of kidneys from sham operated mice, control post-ischemic mice, and post ischemic mice that had received atrasentan treatment. Finally, frontal sections of post-ischemic kidneys were taken from five control mice and five atrasentan-treated mice, fixed in 10% buffered formalin, and used for subsequent histochemical analyses.
This example studies whether atrasentan treatment, restricted to the post-ischemic period, confers renal protection. This experiment was designed to help resolve the issue of when atrasentan was inducing its protective effect. To this end, the same protocol described in Example 2 was repeated, but atrasentan administration was commenced 24 hours after the induction of ischemic damage). At the end of two weeks, the mice were re-anesthetized and the left and right kidneys were weighed. The degree of post ischemic renal weight reduction (the primary endpoint of the above described experiment) was determined. […]
This example studies the potential effects of atrasentan on renal growth independent of ischemic injury. To ascertain whether atrasentan treatment might impact renal growth or size independent of an effect on renal ischemia/post ischemic injury, renal weights of the contralateral (non ischemic) kidneys from the Example 2 were assessed and compared to ischemic kidneys with and without treatment with atrasentan. […]

[4] = system: bilateral ischemic renal injury; test: bilateral ischemic renal injury, severity at 24 hours post ischemia; type: in vivo, CD-1 mice; details: 22.5 min or 25 min bilateral ischemia
Experimental: as §1
This example studies whether atrasentan pre-treatment protects against the acute ischemic injury phase. More particularly, the possibility that atrasentan might mitigate the acute injury phase, and thus, cause a subsequent preservation of renal mass, was explored by subjecting mice to either 22.5 minutes or 25 minutes of bilateral ischemic renal injury in the presence or absence of atrasentan pre-treatment for 24 hours before and for 24 hours after the induction of renal ischemia. […]
The severity of injury was assessed at 24 hours post ischemia by BUN and plasma creatinine concentrations. […] As a second marker of renal injury, renal cortical NGAL mRNA levels were also assessed. Measurement of NGAL mRNA represents a more sensitive biomarker of kidney injury than BUN and Plasma Creatinine measured in FIG. 8 and was measured to investigate the effect of atrasentan on the induction phase of ischemic injury.

[5] = molecular target: ETB receptor; details: read-out: K1 of ET-1/ETB binding affinity; cited from earlier work

Row | Structure (SMILES) | LDH release ([1]; CAD (antimycin A/Ca ionophore/2-deoxyglucose) + 5 μg atrasentan, 18 hours, CAD alone 22.8±0.2%) | LDH release ([1]; human, 18 h, 5 μg/mL) | % KI-67 nuclear positivity ([2]; two week post ischemic kidney, control ischemia 11.4±0.8%, normal kidneys 2.4±0.6%) | histologic injury score (semiquantitative 1+ to 4+, least to most severe) ([2]; two weeks post ischemia, control ischemia 3.4±0.3, p<0.01, mean±SEM) | post ischemic loss of renal mass (renal weight) ([3]; atrasentan commenced 24 hours after induction of ischemic damage, two weeks) | post ischemic kidney weight (renal mass) ([3]; atrasentan in drinking water ~5 mg/Kg/day, started one day before 30 min unilateral ischemia and continued two weeks post ischemia, vs normal kidneys) | contralateral (non ischemic) kidney weight, hypertrophic response ([3]; pre+post atrasentan, two weeks, drug vs. no-drug groups) | severity of AKI by BUN and plasma creatinine concentrations ([4]; atrasentan 24 hours before and 24 hours after, assessed 24 hours post ischemia) | renal cortical NGAL mRNA levels ([4]; atrasentan 24 hours before and after, 24 hours post ischemia) | effect on renal parameters measured ([3]; BQ-788 administered both pre- and post-ischemia) | post ischemic kidney weight ([3]; BQ-788 subcutaneously each day from 1 day before surgery, two weeks post ischemia, control ischemia 0.23 grams) | Ki [5]
1 | CCCCN(CCCC)C(=O)CN1C[C@H](c2ccc3c(c2)OCO3)[C@@H](C(=O)O)[C@@H]1c1ccc(OC)cc1 [atrasentan, (2R,3R,4S)-4-(1,3-benzodioxol-5-yl)-1-[2-(dibutylamino)-2-oxoethyl]-2-(4-methoxyphenyl)pyrrolidine-3-carboxylic acid] | 23.2±0.3% | 9.0±0.1% | 10.8±1.2% | 1.7±0.4 | completely blocked this loss of renal mass | did not significantly differ from that of normal kidneys | no effect on this hypertrophic response | failed to mitigate the severity of AKI | in neither instance did atrasentan decrease these NGAL mRNA increases |  |  | 
2 | CCCC[C@@H](NC(=O)[C@@H](Cc1cn(C(=O)OC)c2ccccc12)NC(=O)[C@H](CC(C)(C)C)NC(=O)N1[C@H](C)CCC[C@@H]1C)C(=O)[O-].[Na+] [BQ-788, N-cis-2,6-dimethylpiperidinocarbonyl-L-gamma-methylleucyl-D-1-methoxycarbonyltryptophanyl-D-norleucine] |  |  |  |  |  |  |  |  |  | no effect on any of the renal parameters measured | 0.24 grams | 100 nM
